Laboratory results from patent US8586768B2, “Design, synthesis and functional characterization of rottlerin analogs” (priority 2009, dated 2013).
Read-outs that look alike come from different tables or passages of the source.

How the values were obtained:
C57 black mice [1] = experiment: Acute MPTP mouse model of PD, locomotor activity (VersaMax Analyzer); format: in vivo; conditions: MPTP 4 x 18 mg/kg i.p.; 10 mg/kg oral gavage, 7 days
Procedure: (§1) Lead PK analogs protect against behavioral deficits and neurochemical loss in a preclinical MPTP-induced mouse model of PD. After characterizing the neuroprotective effect of PK analogs in cell culture models of PD, as a proof of principle, preliminary evaluation of two lead PK analogs in an acute MPTP animal model of PD were conducted. C57 black mice received 4 doses of MPTP at 18 mg/kg i.p at 2 hr interval. Oral administration of lead PK analogs (10 mg/kg body wt, oral gavage) was started 1 day before MPTP insult and continued for 7 days. 1% DMSO was used as the vehicle control. Locomotor activity was measured using the VersaMax Analyzer 1-2 days before sacrificing the mice. Mice were sacrificed after 7 days of MPTP injection. (n=5). (**p<0.01: PK analogs versus MPTP).

C57 black mice [2] = experiment: Acute MPTP mouse model of PD, striatal dopamine and DOPAC; format: in vivo; conditions: MPTP 4 x 18 mg/kg i.p.; 10 mg/kg oral gavage, 7 days
Procedure: as §1

C57 black mice [3] = experiment: MPTP mouse model, tyrosine hydroxylase (TH) immunostaining of substantia nigra; format: in vivo; conditions: MPTP 4 x 18 mg/kg i.p.; 10 mg/kg oral gavage, 7 days
Procedure: PK analogs attenuate dopaminergic neuronal cell loss induced by MPTP toxicity in mouse substantia nigra. Lead PK analogs were examined to determine whether they could protect against MPTP-induced dopaminergic neuronal loss in C57 black mice. Mice received 4 doses of MPTP at 18 mg/kg i.p. at 2 hr interval. Oral administration of PK analogs (10 mg/kg body wt, oral gavage) was continued for 7 days. Mice were sacrificed after 7 days of MPTP injections. (n=5).
Abbreviataions: M: MPTP; SNpc: substantia nigra pars compacta; SNl: substantia nigra lateralis; SNr: substantia nigra reticularis; VTA: Ventral tegmental area.

ERKI = molecular target: T1, ERKI (Homo sapiens, UniProt P27361); experiment: In-vitro kinase profiling, radioisotope screening assay (Signal Chem); format: biochemical; conditions: 5 μM compound, 50 μM ATP, vs vehicle control; negative = inhibition
T1 construct: purchased Signal Chem (Richmond, BC, Canada)
T1 sequence (P27361 whole entry): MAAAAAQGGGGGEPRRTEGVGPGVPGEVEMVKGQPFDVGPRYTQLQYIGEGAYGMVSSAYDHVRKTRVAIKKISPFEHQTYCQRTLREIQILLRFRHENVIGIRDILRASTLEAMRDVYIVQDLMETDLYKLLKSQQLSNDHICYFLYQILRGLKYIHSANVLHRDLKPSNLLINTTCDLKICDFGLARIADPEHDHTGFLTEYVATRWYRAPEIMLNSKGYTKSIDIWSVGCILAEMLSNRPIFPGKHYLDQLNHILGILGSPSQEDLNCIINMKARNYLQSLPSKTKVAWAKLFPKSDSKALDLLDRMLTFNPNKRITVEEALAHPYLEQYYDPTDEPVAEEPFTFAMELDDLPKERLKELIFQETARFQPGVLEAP
Procedure: (§2) Kinase profiling of PK analogs. The inhibitory effect of lead PK analogs were tested against a panel of 15 protein kinase targets (TABLE 1) to develop better lead candidates without “off” target effects. The selectivity assay was performed at Signal Chem™ (Richmond, BC, Canada) by profiling against protein kinase targets using the “Gold Standard” radioisotope screening assay format. This assay format gave the highest signal noise ratio and allowed the direct measurement of catalytic activity of a protein kinase.
(§3) All assays were performed in triplicate in a 96-well assay format and the % error between triplicates is <10%. Protein kinase assays was performed in the presence of 50 μM ATP at 30° C. for 15 min. The activity of the enzymes in the presence of 5 μM PK analogs was compared to that in the vehicle control and expressed as a percent change in activity relative to that observed in the vehicle control. In TABLE 1, the results are expressed as percent activity change compared to control. The intra-assay variability was determined to be less than 10%. Inhibition of target activity by the compound is shown by a negative value, while activation of target activity is shown by positive value, with values >10% considered to be highly significant.

P13K (p110b/p85a) = molecular target: T2, P13K (p110b/p85a) (Homo sapiens, UniProt P42338); experiment: as above; format: biochemical; conditions: 5 μM compound, 50 μM ATP, vs vehicle control; negative = inhibition
T2 construct: purchased Signal Chem (Richmond, BC, Canada)
T2 sequence (P42338 whole entry, stated change not applied): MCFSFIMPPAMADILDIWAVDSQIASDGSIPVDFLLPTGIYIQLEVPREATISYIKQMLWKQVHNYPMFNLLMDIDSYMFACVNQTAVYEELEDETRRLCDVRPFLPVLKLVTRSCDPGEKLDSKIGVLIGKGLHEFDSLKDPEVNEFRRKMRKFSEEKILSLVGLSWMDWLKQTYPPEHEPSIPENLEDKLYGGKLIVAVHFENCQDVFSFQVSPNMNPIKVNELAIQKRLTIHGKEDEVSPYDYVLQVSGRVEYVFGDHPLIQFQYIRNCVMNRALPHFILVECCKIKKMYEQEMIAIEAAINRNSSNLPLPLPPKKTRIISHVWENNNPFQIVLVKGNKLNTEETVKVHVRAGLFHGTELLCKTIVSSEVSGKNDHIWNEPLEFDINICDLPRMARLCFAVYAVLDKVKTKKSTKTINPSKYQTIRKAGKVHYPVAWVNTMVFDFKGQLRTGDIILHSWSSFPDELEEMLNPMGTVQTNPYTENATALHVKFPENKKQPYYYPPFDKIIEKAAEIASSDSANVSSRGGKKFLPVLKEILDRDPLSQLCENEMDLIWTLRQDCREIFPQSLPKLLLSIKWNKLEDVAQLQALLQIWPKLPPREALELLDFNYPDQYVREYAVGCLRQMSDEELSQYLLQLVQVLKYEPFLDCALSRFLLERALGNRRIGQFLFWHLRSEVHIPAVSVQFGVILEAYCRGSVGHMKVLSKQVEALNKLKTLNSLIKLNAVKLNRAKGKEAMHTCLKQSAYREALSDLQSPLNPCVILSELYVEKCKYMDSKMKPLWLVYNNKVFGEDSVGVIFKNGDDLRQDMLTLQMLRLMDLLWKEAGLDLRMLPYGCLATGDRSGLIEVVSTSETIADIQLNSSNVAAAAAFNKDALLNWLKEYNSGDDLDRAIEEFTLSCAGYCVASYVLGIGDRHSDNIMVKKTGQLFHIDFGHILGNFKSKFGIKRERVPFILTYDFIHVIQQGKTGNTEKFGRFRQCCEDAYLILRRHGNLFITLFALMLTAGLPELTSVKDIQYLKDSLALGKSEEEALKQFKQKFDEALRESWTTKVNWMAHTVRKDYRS
T2 sequence (P27986 2-724 partner): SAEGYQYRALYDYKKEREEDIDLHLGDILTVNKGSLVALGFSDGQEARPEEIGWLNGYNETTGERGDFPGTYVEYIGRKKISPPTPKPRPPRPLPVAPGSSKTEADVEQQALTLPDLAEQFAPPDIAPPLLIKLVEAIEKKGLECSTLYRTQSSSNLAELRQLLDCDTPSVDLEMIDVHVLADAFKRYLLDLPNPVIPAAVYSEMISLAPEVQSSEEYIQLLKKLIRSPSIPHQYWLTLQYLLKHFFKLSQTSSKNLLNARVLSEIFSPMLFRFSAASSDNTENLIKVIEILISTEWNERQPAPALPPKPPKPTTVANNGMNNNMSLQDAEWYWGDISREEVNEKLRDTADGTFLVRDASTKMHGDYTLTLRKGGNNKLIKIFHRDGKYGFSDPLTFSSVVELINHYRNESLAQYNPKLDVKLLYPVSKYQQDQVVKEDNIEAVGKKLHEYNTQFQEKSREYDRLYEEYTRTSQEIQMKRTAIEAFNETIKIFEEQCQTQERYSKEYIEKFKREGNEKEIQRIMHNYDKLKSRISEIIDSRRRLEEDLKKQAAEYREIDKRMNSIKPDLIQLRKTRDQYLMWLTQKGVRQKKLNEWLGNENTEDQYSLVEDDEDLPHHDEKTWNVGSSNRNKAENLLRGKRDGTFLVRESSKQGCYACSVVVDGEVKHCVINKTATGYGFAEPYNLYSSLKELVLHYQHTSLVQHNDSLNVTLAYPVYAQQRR
Procedure: as §2, §3

[4] = test system: caspase-3 activity in N27 cells; experiment: MPP+-induced caspase-3 activity assay in N27 cells; format: cell-based, rat; conditions: for relative protection against MPP+-induced caspase-3 activity within the generation / blockage of MPP+-induced caspase-3 activity: 300 μM MPP+ 24 hr; for relative protection against MPP+-induced caspase-3 activity within the generation: 0.3-10 μM; for blockage of MPP+-induced caspase-3 activity: co-treated with 0.3, 1, 3 and 10 μM
Procedure: To determine whether PK analogs are neuroprotective against MPP+-induced increases in caspase-3 and DNA fragmentation, their effects on MPP+-induced increases in caspase-3 activity and DNA fragmentation, markers of apoptotic cell death, were examined.
The second generation PK analogs were further tested to determine whether the analogs are neuroprotective against MPP+-induced apoptotic cell death. The effects on MPP+-induced increases in caspase-3 enzymatic activity were analyzed, a marker of apoptotic cell death. […] At the end of the treatment, cytotoxicity was measured using the caspase-3 assay in a 96-well fluorescence microplate reader.
The third generation PK analogs were further tested to determine whether the analogs are neuroprotective against MPP+-induced apoptotic cell death. The effects on MPP+-induced increases in caspase-3 enzymatic activity were examined, a marker of apoptotic cell death. N27 cells were exposed to 300 μM MPP+ for 24 hr in the presence or absence of three different PK compounds in the dose range of 0.3-10 μM. At the end of the treatment, cytotoxicity was measured using the caspase-3 assay in a 96-well fluorescence microplate reader.
(§4) Rat mesencephalic dopaminergic clonal cells (N27) were used and maintained in RPMI 1640 complete medium supplemented with 10% Fetal Bovine Serum, 1% […] and 1% Penicillin/Streptomycin in a 37° C. incubator with 5% CO2. After 4-6 days in culture, the cells were used for the experiments.
(§5) N27 cells were exposed to MPP^+ for 24 hr in the presence or absence of PK analogs in the dose range of 1-30 μM.

N27 cells = conditions: 300 μM MPP+ 24 hr
Procedure: (§6) At the end of the treatment, cytotoxicity was measured using the Sytox cell death assay in a 96-well fluorescence microplate reader.
A second generation of rottlerin analogs was further utilized for neuroprotection studies, as shown as PK201-203 in FIG. 2.
as §6
The analogs were tested in an N27 dopaminergic cell model for their neuroprotective properties. […] At the end of the treatment, cytotoxicity was measured using the Sytox cell death assay in a 96-well fluorescence microplate reader.
as §4, §5

PKCδ = PKCδ (Homo sapiens, UniProt Q05655); experiment: In vitro 32P phosphorylation kinase assay with histone substrate; format: biochemical; conditions: for % activity change 3 μM: 3 μM compound, negative = inhibition
Sequence of PKCδ (Q05655 whole entry): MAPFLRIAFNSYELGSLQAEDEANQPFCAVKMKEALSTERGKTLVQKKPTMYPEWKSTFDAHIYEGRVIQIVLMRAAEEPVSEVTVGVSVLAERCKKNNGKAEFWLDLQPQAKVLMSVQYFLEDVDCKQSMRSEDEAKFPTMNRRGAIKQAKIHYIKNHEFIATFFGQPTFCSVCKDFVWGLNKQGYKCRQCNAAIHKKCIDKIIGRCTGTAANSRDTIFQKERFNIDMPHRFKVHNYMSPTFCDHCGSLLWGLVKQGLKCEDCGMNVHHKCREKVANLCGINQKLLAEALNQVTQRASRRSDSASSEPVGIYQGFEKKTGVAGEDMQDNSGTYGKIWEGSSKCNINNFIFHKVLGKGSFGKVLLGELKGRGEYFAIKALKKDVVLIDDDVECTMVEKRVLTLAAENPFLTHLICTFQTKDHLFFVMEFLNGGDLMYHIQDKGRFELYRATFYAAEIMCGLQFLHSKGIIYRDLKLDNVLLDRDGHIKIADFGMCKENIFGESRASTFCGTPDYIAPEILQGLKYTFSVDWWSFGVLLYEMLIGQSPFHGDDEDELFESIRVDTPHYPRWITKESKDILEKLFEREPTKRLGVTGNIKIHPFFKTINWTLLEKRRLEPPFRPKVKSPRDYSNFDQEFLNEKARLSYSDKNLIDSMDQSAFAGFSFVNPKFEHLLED
Procedure: Since PK analogs are directed against PKCδ, it was first determined whether the analogs would inhibit PKCδ enzyme activity in kinase assays. The ability of lead PK analogs to inhibit purified human recombinant PKCδ enzyme activity by 32P phosphorylation kinase assay with histone as the substrate was measured. The in vitro kinase assays were performed with human recombinant PKCδ in the presence or absence of 0.3-10 μM lead PK analogs in the presence histone substrate, [^32P]-ATP and phospholipids. The extent of histone phosphorylation was determined after separation in SDS-PAGE and by phosphoimaging. IC50 was obtained using sigmoidal dose-response curve and non-linear regressional analysis using Graphpad Prism software.
In vitro kinase assays were performed with human recombinant PKCδ in the presence or absence of 0.3-10 μM lead PK analogs in the presence histone substrate, [^32P]-ATP and phospholipids. The extent of histone phosphorylation was determined after separation in SDS-PAGE and by phosphoimaging.

[5] = LC-MS-MS detection in mouse brain after oral administration; format: in vivo
From the text: Bioavailability of Lead PK analogs. LC-MS-MS detection of lead PK analogs PK202 and PK8302 analog in mouse brain was completed.

[6] = 0.3-10 μM, histone substrate, [32P]-ATP, phospholipids, read-out: IC50
[7] = mouse brain, oral administration (oral gavage)
[8] = co-treated with 0.3, 1 and 3 μM

| Compound | horizontal locomotor deficits (C57 black mice [1]) | vertical locomotor deficits (C57 black mice [1]) | striatal DOPAC depletion (C57 black mice [2]) | striatal dopamine depletion (C57 black mice [2]) | protection against MPTP-induced nigral dopaminergic degeneration (TH immunostaining) (C57 black mice [3]) | % activity change (ERKI) [%] | % activity change (P13K (p110b/p85a)) [%] | blockage of MPP+-induced increases in caspase-3 activation ([4]; co-treated with 3 μM) | blockage of MPP+-induced cytotoxicity (N27 cells; co-treated with 3 μM) | % activity change 3 μM (PKCδ) [%] | IC50 (PKCδ; [6]) [µM] | level detected in substantia nigra by LC-MS-MS [5, 7] | relative protection against MPP+-induced caspase-3 activity within the generation [4] | blockage of MPP+-induced caspase-3 activity [4] | relative potency against MPP+-induced cytotoxic cell death within the generation (N27 cells) | blockage of MPP+-induced cytotoxicity (N27 cells; [8]) | IC50 (PKCδ) [µM] | level detected in substantia nigra by LC-MS-MS ([5]; mouse, in vivo, po) |
| --- | --- | --- | --- | --- | --- | --- | --- | --- | --- | --- | --- | --- | --- | --- | --- | --- | --- | --- |
| Oc1cc(O)c(Cc2c(O)cc(O)cc2O)c(O)c1 [PK103] | significantly improved | significantly improved | attenuated | attenuated | significant protection | 0 | −6 | significant blockage | significant blockage | −65 | 5.98 | – | – | – | – | – | – | – |
| CC(=O)c1c(O)c(C)c(O)c(Cc2c(O)c3c(c4c2OC(c2ccccc2)CC4=O)OC(C)(C)C=C3)c1O (centres unmarked) [PK202] | significantly improved | significantly improved | attenuated | attenuated | significant protection | 4 | −2 | – | – | −67 | 0.97 | Significant amounts | more effectively protects | dose-dependent blockage | most potent inhibitor | significant blockage | – | – |
| CC(=O)c1c(O)c(C)c(O)c(Cc2c(O)c3c(c(C(=O)/C=C/c4ccccc4)c2O)OC(C)(C)C=C3)c1O [Rottlerin, (E)-1-[6-[(3-acetyl-2,4,6-trihydroxy-5-methylphenyl)methyl]-5,7-dihydroxy-2,2-dimethylchromen-8-yl]-3-phenylprop-2-en-1-one] | – | – | – | – | – | 3 | −10 | – | – | −40 | – | Significant levels | – | – | – | – | 13.6 | – |
| CC1(C)C=Cc2c(O)cc(O)c(C(=O)/C=C/c3ccccc3)c2O1 [PK302] | significantly improved | significantly improved | attenuated | attenuated | significant protection | 3 | −8 | – | – | −73 | 1.99 | – | more effectively protect | significant blockage | more potent inhibitors than PK301 | significant blockage | – | Significant amounts |
